Experimental data: EP2366394A1, “Characterization and validation of inhibitors and ligands of dipeptidyl aminopeptidase IV (DP IV)” (IMTM GmbH, priority 2010, dated 2011)
Like-named read-outs stand apart in the source and are kept apart here.

How the values were obtained:
T lymphocytes = experiment: Inhibition of proliferation (DNA synthesis, tritium thymidine incorporation) of PHA-stimulated T lymphocytes; assay type: cell-based; conditions: Homo sapiens, T-lymphocyte, read-out: IC50(Tc) Measured DNA-Supp.
Description: Peripheral blood mononuclear cells (PBMC) from healthy human volunteers were freshly isolated by density gradient centrifugation. T lymphocytes (T cells, Tc) were isolated from PBMC fractions via nylon wool adherence. Cells were cultured in standard cell culture media and stimulated by addition of 1 µg/ml Phytohemagglutinine for 48 hours in 96 well flat-bottom microtitre plates. […] DNA synthesis of proliferating T cells was determined by incorporation of radio labelled tritium thymidine and subsequent radio detection. […] The IC50 value of proliferation suppression was assessed by graphical evaluation.

[1] = molecular target: purified, recombinant human DPIV (Homo sapiens, UniProt P27487); experiment: Inhibition of the enzymatic activity of DPIV, fluorogenic substrate (Ala-Pro)2-R110; assay type: biochemical; conditions: substrate 0.5 µM, pH 7.5; highest test concentration 25 µM; > 25: No inhibition
Description: The assay was performed in 0.05 M TRIS/HCl buffer, pH 7.5, supplemented with 0.05 % Triton® (v/v), 0.05 % BSA (w/v), 2 mM MgCl2.
The enzymatic activity of DPIV was assessed by the hydrolysis of the fluorogenic substrate Bis-(L-Alanyl-Prolyl)-Rhodamin-110 (Bis-Trifluoroacetate; abbreviation: (Ala-Pro)2-R110). The final substrate concentration was 0.5 µM.
The assay was performed in white microtitre plates for fluorescence measurements. The test items, substrate and enzyme, were diluted in assay buffer. […] For the calculation of IC50 values, at least 16 log2 dilutions of each test item were analyzed. As controls, the DPIV activity in the absence of test items as well as the spontaneous hydrolysis of the substrate was determined.

DP8/9 = experiment: Inhibition of the enzymatic activity of DPIV related enzymes DP8/9; assay type: biochemical; conditions: > 25: No inhibition
Description: Measurement of the enzymatic activity of DPIV and related enzymes

[2] = suppression of DNA synthesis of T cells, 1 µg/ml Phytohemagglutinine, 48 hours, graphical evaluation

Chain of purified, recombinant human DPIV (P27487 whole entry): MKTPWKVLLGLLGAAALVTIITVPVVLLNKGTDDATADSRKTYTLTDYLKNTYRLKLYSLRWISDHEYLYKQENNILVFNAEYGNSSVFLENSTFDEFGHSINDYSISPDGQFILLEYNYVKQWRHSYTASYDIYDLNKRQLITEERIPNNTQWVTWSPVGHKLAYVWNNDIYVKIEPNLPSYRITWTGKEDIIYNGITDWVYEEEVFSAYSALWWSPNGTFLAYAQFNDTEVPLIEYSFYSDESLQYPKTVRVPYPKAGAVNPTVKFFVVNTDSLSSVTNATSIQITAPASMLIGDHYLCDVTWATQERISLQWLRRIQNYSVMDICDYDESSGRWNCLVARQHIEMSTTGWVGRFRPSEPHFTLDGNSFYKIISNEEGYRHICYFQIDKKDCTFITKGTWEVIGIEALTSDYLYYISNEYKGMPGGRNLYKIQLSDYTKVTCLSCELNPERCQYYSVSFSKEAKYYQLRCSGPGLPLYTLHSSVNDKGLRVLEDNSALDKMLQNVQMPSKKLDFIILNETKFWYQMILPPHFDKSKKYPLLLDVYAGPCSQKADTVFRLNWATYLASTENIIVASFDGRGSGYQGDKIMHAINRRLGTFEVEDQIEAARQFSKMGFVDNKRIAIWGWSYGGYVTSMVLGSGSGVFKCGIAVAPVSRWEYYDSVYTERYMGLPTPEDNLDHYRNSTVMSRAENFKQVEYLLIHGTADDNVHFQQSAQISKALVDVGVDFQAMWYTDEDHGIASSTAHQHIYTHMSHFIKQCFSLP

Compound	IC50 (T lymphocytes; 48 h)	IC50 (T lymphocytes; [2])	IC50 [1]	IC50 (DP8/9)
N[C@@H](CC(=O)N1CCn2c(nnc2C(F)(F)F)C1)Cc1cc(F)ccc1F [No. 1, (1R)-1-(2,5-Difluorobenzyl)-3-oxo-3-[3-(trifluoromethyl)-5,6-dihydro[1,2,4]triazolo[4,3-a]pyrazine-7(8H)-yl]propylamine]	200 µM	–	–	–
CC(C)C(Oc1ccc(CNC(=O)C2CCCN2C(=O)CC(N)Cc2cc(F)ccc2F)cc1)C(=O)O (stereo not shown) [No. 2, 2-[({[1-(3-Amino, 2-(2, 5)-difluorophenylbutanoyl)pyrrolidin-2-yl]carbonyl}amino)-p-phenoxy]-3-methyl butanoic acid]	–	81 µM	0.48 µM	> 25 µM
CC[C@H](C)[C@H](N)C(=O)N1CCSC1 [No. 4, (1S,2S)-2-Methyl-1-(1,3-thiazolidine-3-ylcarbonyl) butyl amine]	113 µM	–	–	1.73 µM
CC(C)(CNC(=O)CC(Cc1cc(F)ccc1F)NC(=O)OC(C)(C)C)CNC(=O)C(O)C(Cc1ccccc1)NC(=O)OC(C)(C)C (stereo not shown) [No. 6, 3-N-tert.-Butylcarbamato-5-phenyl-N-{3-[(3-amino-2-hydroxypropanoyl)-amino]-2,2-dimethylpropyl}-5-(2,5-difluorophenyl) pentane 3-amine]	8 µM	–	> 25 µM	> 25 µM
CCCCCC(=O)NC(CC(=O)NCC(C)(C)CNC(=O)C(O)C(Cc1ccccc1)NC(=O)CCCCC)Cc1cc(F)ccc1F (stereo not shown) [No. 7, 3-Amino-5-phenyl-N-{3-[(3-amino-1-oxohexyl-2-hydroxypropanoyl)amino-1-oxohexyl]-2,2-dimethylpropyl}-5-(2,5-difluorophenyl)pentane 3-N-tert.butyl carbamate]	10 µM	–	> 25 µM	> 25 µM
NC(CCCCNC(=O)c1ccc(S)nc1)C(=O)N1CCSC1 (stereo not shown) [No. 8, N-[5-Amino-6-oxo-6-(1,3-thiazolidine-3-yl)hexyl]-6-mercapto nicotinamide]	90 µM	–	0.09 µM	0.001 µM
NC(CC(=O)N1CCn2c(nnc2C(F)(F)F)C1)Cc1cc(F)c(F)cc1F (stereo not shown) [No. 10, 3-Oxo-1-(2,4,5-trifluorobenzyl)-3-[3-(trifluoromethyl)-5,6-dihydro-[1,2,4]triazolo[4,3-a]pyrazine-7(8H)-yl]propyl amine]	–	148 µM	–	15.3 µM
NC(CC(=O)N1CCN(C(c2ccc(F)cc2)c2ccc(F)cc2)CC1)C(=O)N1Cc2ccccc2C1 (stereo not shown) [No. 13, 2-Amino-1-(1,3-dihydro-2H-isoindol-2-yl)-4-(4-bis(4-fluorophenyl)-methylpiperazine-1-yl) butane-1,4-dione]	6 µM	–	–	–
NC(CNC(=O)c1cccc(NC(=O)C(O)C(N)Cc2ccc(-c3cccnc3)cc2)c1)Cc1cc(F)ccc1F (stereo not shown) [No. 15, 3-[(3-Amino-2-4-(4-(3-pyridinyl)-phenyl) hydroxybu-tanoyl)-amino]-N-(2-amino-5-(2,4-difluorophenyl)pentyl) ben-zamide]	–	24 µM	–	8.5 µM
Cc1[nH]c2ccccc2c1C(c1cc(Cl)ccc1O)N1CCOCC1 (stereo not shown) [No. 16, 4-Chloro-2-[(2-methyl-1H-indol-3-yl)(morpholin-4-yl)methyl]-benzenolate]	–	3 µM	> 25 µM	–
